Measured values from US9789111B2, “Casein kinase 1δ (CK 1δ) inhibitors” (Electrophoretics Limited, priority 2010, dated 2017).

How the values were obtained:
HGK/MAP4K4 = HGK/MAP4K4 (Homo sapiens, UniProt O95819); assay: kinase inhibition assay panel; format: biochemical
Description: (§1) Base Reaction buffer; 20 mM Hepes (pH 7.5), 10 mM MgCl2, 1 mM EGTA, 0.02% Brij35, 0.02 mg/ml BSA, 0.1 mM Na3VO4, 2 mM DTT, 1% DMSO
(§2) It should be noted that required cofactors are added individually to each kinase reaction.
(§3) • 1. Prepare indicated substrate in freshly prepared Base Reaction Buffer as described above • 2. Deliver any required cofactors to the substrate solution • 3. Deliver indicated kinase into the substrate solution and gently mix • 4. Deliver compounds in DMSO into the kinase reaction mixture • 5. Deliver ^33P-ATP (specific activity 0.01 μCi/μl final) into the reaction mixture to initiate the reaction • 6. Incubate kinase reaction for 120 min. at room temperature • 7. Reactions are spotted onto P81 ion exchange paper (Whatman #3698-915) • 8. Wash filters extensively in 0.75% Phosphoric acid Kinase Information: • CK1δ—Genbank Accession # NP_620693 • Recombinant human full-length construct. GST-tagged, expressed in insect cells. • Final concentration in assay=4 nM • Substrate: CK1tide • Substrate sequence: [KRRRAL[pS]VASLPGL] • Final substrate concentration in assay=20 μM • It should be noted that no additional cofactors are added to the reaction mixture.

TNIK = TNIK (Homo sapiens, UniProt Q9UKE5); assay: kinase inhibition assay panel; format: biochemical
TNIK, sequence (Q9UKE5 whole entry, species assumed): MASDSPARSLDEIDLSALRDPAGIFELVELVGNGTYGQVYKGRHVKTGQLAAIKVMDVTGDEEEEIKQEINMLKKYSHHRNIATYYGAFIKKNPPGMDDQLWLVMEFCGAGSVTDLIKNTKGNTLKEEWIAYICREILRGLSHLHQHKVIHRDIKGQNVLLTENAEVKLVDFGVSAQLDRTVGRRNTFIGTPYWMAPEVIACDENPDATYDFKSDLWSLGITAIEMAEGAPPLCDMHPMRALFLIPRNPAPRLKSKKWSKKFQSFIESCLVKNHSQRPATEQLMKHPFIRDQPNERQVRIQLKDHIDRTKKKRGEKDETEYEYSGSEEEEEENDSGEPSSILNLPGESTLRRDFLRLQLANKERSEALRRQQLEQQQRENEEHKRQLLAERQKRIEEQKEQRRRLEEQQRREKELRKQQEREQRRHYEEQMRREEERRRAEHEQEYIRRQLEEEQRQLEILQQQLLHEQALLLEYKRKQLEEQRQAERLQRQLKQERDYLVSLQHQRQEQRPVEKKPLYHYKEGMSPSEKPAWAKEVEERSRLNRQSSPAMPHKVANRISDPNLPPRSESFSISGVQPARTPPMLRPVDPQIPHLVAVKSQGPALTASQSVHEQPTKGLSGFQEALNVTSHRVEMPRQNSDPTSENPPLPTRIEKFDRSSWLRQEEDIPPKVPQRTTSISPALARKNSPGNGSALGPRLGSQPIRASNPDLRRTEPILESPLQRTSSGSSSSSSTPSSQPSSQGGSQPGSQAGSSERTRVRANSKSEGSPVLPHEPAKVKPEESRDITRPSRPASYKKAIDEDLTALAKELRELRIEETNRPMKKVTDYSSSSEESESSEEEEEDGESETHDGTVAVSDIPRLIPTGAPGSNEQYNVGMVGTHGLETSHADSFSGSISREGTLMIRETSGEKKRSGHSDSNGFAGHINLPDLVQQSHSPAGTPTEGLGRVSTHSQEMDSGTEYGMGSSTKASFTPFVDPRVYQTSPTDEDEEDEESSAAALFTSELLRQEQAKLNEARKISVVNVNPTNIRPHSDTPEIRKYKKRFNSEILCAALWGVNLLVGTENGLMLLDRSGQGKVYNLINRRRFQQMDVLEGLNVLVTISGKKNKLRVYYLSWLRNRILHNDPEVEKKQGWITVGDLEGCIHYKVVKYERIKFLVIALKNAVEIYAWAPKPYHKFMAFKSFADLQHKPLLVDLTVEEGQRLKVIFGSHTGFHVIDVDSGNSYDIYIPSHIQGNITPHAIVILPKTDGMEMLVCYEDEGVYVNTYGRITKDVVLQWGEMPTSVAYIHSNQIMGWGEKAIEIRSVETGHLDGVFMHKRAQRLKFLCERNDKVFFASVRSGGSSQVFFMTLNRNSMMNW
Description: as §1, §2, §3

c-SRC = c-SRC (Homo sapiens, UniProt P12931); assay: kinase inhibition assay panel; format: biochemical
Description: as §1, §2, §3

ABL2/ARG = ABL2/ARG (Homo sapiens, UniProt P42684); assay: kinase inhibition assay panel; format: biochemical
Description: as §1, §2, §3

LCK = LCK (Homo sapiens, UniProt P06239); assay: kinase inhibition assay panel; format: biochemical
Description: as §1, §2, §3

MSK1/RPS6KA5 = MSK1/RPS6KA5 (Homo sapiens, UniProt O75582); assay: kinase inhibition assay panel; format: biochemical
MSK1/RPS6KA5, sequence (O75582 whole entry): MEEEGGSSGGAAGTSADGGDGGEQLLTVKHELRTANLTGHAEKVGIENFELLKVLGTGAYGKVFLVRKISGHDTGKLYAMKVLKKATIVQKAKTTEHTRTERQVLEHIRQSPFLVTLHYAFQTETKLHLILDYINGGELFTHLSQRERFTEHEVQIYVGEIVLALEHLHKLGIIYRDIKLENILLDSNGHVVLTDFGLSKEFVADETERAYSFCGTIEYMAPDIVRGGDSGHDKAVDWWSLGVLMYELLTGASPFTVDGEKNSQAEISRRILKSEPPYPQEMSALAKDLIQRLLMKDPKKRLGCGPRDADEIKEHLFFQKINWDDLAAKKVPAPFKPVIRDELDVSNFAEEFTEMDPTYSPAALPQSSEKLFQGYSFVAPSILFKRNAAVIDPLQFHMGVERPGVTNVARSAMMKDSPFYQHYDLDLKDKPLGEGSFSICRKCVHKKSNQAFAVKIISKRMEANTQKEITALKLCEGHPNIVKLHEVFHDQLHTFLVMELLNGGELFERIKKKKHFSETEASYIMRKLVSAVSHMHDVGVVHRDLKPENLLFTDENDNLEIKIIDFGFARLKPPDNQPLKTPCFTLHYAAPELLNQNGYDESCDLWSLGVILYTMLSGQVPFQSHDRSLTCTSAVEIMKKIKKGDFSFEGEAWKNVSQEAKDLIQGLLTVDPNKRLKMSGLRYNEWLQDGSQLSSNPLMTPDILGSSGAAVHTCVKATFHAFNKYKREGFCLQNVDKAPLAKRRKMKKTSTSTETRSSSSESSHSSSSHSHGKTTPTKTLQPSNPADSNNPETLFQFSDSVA
Description: as §1, §2, §3

PKCb2 = PKCb2 (Homo sapiens, UniProt P05771); assay: kinase inhibition assay panel; format: biochemical
PKCb2, sequence (P05771 1-673 isoform P05771-2): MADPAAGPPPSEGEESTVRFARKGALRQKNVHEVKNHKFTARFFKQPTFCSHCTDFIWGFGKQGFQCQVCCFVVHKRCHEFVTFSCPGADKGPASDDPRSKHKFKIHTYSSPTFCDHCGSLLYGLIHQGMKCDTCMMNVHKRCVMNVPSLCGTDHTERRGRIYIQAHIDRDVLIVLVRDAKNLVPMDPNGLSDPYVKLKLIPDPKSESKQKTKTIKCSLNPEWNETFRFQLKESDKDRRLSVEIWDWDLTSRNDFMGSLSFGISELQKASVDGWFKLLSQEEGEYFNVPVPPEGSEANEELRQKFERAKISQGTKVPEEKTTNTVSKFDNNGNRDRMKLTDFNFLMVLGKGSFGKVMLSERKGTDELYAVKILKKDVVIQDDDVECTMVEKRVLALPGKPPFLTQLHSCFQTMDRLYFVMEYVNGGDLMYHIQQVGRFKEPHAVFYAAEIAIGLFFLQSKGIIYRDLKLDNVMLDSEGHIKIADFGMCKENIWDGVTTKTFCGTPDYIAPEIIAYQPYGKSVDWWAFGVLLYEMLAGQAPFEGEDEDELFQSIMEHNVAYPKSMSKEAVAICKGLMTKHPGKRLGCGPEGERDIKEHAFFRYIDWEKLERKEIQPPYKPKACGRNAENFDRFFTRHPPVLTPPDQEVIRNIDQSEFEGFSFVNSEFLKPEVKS
Description: as §1, §2, §3

GSK3b = GSK3b (Homo sapiens, UniProt P49841); assay: kinase inhibition assay panel; format: biochemical
GSK3b, sequence (P49841 whole entry, species assumed): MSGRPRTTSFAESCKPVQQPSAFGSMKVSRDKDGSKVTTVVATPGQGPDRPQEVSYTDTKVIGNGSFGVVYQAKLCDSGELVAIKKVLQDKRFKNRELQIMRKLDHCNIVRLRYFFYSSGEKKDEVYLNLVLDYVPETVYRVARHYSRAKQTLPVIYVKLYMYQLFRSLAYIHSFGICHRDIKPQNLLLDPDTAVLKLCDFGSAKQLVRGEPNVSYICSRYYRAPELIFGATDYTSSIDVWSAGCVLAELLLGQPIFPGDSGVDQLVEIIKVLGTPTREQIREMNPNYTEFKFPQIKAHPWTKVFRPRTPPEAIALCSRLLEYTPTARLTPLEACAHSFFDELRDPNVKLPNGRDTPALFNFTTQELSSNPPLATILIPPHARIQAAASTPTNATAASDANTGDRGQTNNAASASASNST
Description: as §1, §2, §3

PIM3 = PIM3 (Homo sapiens, UniProt Q86V86); assay: kinase inhibition assay panel; format: biochemical
Description: as §1, §2, §3

KDR/VEGFR2 = KDR/VEGFR2 (Homo sapiens, UniProt P35968); assay: kinase inhibition assay panel; format: biochemical
KDR/VEGFR2, sequence (P35968 20-1356): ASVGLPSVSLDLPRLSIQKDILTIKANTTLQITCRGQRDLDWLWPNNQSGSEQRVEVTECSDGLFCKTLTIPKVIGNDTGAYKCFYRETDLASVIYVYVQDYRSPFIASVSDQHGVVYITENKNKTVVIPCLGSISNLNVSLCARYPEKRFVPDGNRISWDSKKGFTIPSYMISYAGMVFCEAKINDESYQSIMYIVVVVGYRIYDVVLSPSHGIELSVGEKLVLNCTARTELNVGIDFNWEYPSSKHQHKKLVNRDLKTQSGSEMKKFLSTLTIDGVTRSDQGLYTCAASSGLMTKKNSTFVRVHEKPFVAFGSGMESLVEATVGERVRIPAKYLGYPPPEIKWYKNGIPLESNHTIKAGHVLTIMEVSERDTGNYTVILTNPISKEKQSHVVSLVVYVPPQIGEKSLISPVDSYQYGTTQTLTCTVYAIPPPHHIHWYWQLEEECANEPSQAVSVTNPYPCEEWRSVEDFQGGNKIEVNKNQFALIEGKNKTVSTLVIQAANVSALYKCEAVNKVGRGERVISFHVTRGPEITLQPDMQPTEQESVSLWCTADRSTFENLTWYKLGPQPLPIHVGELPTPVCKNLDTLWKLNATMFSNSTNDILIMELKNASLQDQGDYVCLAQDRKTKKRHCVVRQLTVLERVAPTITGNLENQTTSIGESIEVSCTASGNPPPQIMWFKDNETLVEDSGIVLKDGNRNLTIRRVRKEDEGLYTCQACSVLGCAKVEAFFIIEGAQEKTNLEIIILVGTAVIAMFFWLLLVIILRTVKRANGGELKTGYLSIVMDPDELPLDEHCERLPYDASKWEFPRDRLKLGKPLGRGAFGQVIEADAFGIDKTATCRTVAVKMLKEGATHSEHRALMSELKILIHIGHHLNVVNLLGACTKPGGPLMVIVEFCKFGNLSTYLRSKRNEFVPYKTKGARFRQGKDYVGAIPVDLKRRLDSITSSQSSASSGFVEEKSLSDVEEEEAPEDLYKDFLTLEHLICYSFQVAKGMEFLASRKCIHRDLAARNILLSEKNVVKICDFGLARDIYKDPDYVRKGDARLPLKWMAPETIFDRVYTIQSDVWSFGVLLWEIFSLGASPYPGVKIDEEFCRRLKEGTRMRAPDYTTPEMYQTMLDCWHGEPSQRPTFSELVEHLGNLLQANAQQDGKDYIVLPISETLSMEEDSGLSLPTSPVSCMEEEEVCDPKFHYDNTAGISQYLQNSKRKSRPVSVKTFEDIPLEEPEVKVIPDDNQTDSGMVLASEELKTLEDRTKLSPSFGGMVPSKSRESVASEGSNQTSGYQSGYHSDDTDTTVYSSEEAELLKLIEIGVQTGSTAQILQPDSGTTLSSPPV
Description: as §1, §2, §3

[1] = test system: Tau phosphorylation in SH-SY5Y-TMHT cells; assay: PhosphoTau SRM assay V2 and V3 (mass spectrometric); format: cell-based, human; settings: for relative level of phosphorylation at each site (level of phosphopeptide) compared with vehicle treated controls / Tau phosphorylated at S396: 10 μM; for relative level of phosphorylation at each site (level of phosphopeptide) compared with vehicle treated controls: PhosphoTau SRM assay V2 and V3; for Tau phosphorylated at S396: vehicle control approximately 83%; for phosphorylation of Ser 396 within Tau proteins: FIG. 4
From the text: The PhosphoTau SRM V2 assay measures total tau and relative phosphorylation levels at five of the most commonly studied sites on Tau and was obtained from Proteome Sciences plc (Cobham, England). None of the sites in the V2 assay is uniquely phosphorylated by CK1δ and there is a possibility that compound-induced inhibition of phosphorylation measured by this method may be achieved through promiscuous inhibition of other kinases such as GSK3b and/or CDK5. […] Table 1 lists the various sites covered and the candidate Tau kinases reported in Hanger et al. (2007).
SH-SY5Y-TMHT cells are kept in culture medium (DMEM medium, 10% FCS, 1% NEAA, 1% L-Glutamine, 100 μg/ml Gentamycin, 300 μg/ml Geneticin G-418) for 2 days until 80-90% confluency. Cells are then differentiated in culture medium supplemented with 10 μM retinoic acid (RA) for 7 days changing medium every 2 to 3 days. […] On day 8 post-differentiation, the test compounds, reference compounds and vehicle control were added to the culture medium. After 6 h of compound exposure one plate of cells is subjected to a MTT assay to evaluate the effect of test and reference items on cell viability. Remaining wells are washed once with cold PBS and harvested in 300 μl RIPA-Buffer [50 mM Tris pH 7.4, 1% Nonident P40, 0.25% Na-deoxy-cholate, 150 mM NaCl, 1 mM EDTA, 1 μM NaF, 1 μM Na-ortho-vanadate, 80 mM Glycerophosphate, supplemented with freshly added protease (Calbiochem) and phosphatase (Sigma) inhibitor cocktail]. The cell suspension is transferred into a 1.5 ml tube and additionally lysed by sonication on ice. An aliquot of 20 μl is taken for the determination of the protein concentration (BCA assay). Subsequently, the lysates are snap frozen and stored at −80° C. until shipment.
Stacking gels are loaded with approximately 100 μg total protein based on BCA assay results. Gels are run until the total protein content forms a single discrete band in the stacking gel. Each protein band is then cut from the gel and digested with either trypsin or Asp-N and analysed using the PhosphoTau SRM assay V2 or V3 respectively. Each assay method quantifies the phosphorylation in pre-clinical material using a triple quadrupole mass spectrometer (TSQ Vantage, Thermo Scientific, Hemel Hempstead, UK). Prior to SRM analysis phosphopeptides and pre-clinical samples were resolved by RP-chromatography (XBridge column, Waters, Manchester, UK) over a 9 minute gradient 0-30% ACN (buffer A; 0.1% FA, buffer B; ACN, 0.1% FA). Light and heavy versions for each peptide and phosphopeptide were monitored by several SRM transitions, using optimised S Lens values and collision energy settings. The area under the SRM LC peak was used to quantitate the amount of analyte present in each cell lysate as a single point reference to the signal of the heavy peptide spike.
An 11 point calibration curve of light phosphopeptides with each point in the curve spiked with 100 fmol heavy phosphopeptides was also produced to determine assay characteristics (LOD, LOQ, precision and accuracy). For each specified tau population, the endogenous level of each tau phosphopeptide was quantified against its calibration curve (0.25-1000 fmol on column). Prior to LC-SRM analysis each tau population was spiked with 100 fmol of the heavy phosphopeptide standards.

SMILES	inhibition of HGK/MAP4K4 (HGK/MAP4K4)	inhibition of TNIK (TNIK)	inhibition of c-SRC (c-SRC)	inhibition of ABL2/ARG (ABL2/ARG)	inhibition of LCK (LCK)	inhibition of MSK1/RPS6KA5 (MSK1/RPS6KA5)	inhibition of PKCb2 (PKCb2)	inhibition of GSK3b (GSK3b)	inhibition of PIM3 (PIM3)	inhibition of KDR/VEGFR2 (KDR/VEGFR2)	relative level of phosphorylation at each site (level of phosphopeptide) compared with vehicle treated controls [1]	Tau phosphorylated at S396 [1]	phosphorylation of Ser 396 within Tau proteins [1]
Nc1ncc(-c2nc3ccccc3o2)c(-c2ccncc2)n1 [Compound 324, 5-(1,3-benzoxazol-2-yl)-4-(pyridin-4-yl)pyrimidin-2-amine]	lower than 40%	lower than 40%	lower than 40%	lower than 40%	lower than 40%	lower than 40%	lower than 40%	lower than 40%	lower than 40%	lower than 40%	distinct reduction	38%	inhibit phosphorylation
NC(=O)c1c(N)c(C(=O)c2ccc(F)cc2)n2ccccc12 [Compound 987, 2-amino-3-[(4-fluorophenyl)carbonyl]indolizine-1-carboxamide]	lower than 40%	lower than 40%	lower than 40%	lower than 40%	lower than 40%	lower than 40%	lower than 40%	lower than 40%	lower than 40%	lower than 40%	distinct reduction	24%	inhibit phosphorylation
